According to the NIST ThermoML archive (doi:10.1016/j.jct.2015.08.040):

Assay: xn = mol fraction of the nth substance listed
Conditions: 100 kPa, Liquid; for speed of sound: Frequency=2 MHz, Linear variable-path acoustic interferometer; for mass density: Vibrating tube method

CCCCOCCO [2-butoxyethan-1-ol] + OCc1ccccc1
Conditions | mass density, 298.15 K [kg/m3] | mass density, 303.15 K [kg/m3] | mass density, 308.15 K [kg/m3] | mass density, 313.15 K [kg/m3] | mass density, 318.15 K [kg/m3] | speed of sound, 298.15 K [m/s] | speed of sound, 308.15 K [m/s]
x2 = 0 | 896.46 | 892.22 | 887.97 | 883.7 | 879.42 | 1305 | 1275
x2 = 0.1042 | 909.14 | 904.89 | 900.6 | 896.2 | 891.93 | 1329 | 1296
x2 = 0.2038 | 921.94 | 917.61 | 913.28 | 908.82 | 904.49 | 1352 | 1317
x2 = 0.299 | 934.77 | 930.34 | 925.95 | 921.47 | 917.11 | 1373 | 1337
x2 = 0.3902 | 947.51 | 942.98 | 938.56 | 934.1 | 929.63 | 1394 | 1356
x2 = 0.4776 | 960.11 | 955.52 | 951.03 | 946.55 | 942.13 | 1413 | 1375
x2 = 0.5614 | 972.47 | 967.75 | 963.31 | 958.86 | 954.41 | 1433 | 1394
x2 = 0.6418 | 984.52 | 979.84 | 975.34 | 970.91 | 966.56 | 1452 | 1412
x2 = 0.7191 | 996.35 | 991.7 | 987.22 | 982.84 | 978.55 | 1470 | 1430
x2 = 0.7933 | 1007.85 | 1003.3 | 998.89 | 994.59 | 990.4 | 1486 | 1446
x2 = 0.8648 | 1019.13 | 1014.73 | 1010.48 | 1006.26 | 1002.24 | 1503 | 1463
x2 = 0.9336 | 1030.15 | 1025.98 | 1021.88 | 1017.81 | 1013.89 | 1519 | 1479

CCOCCO [2-ethoxyethan-1-ol] + OCc1ccccc1
Conditions | mass density, 298.15 K [kg/m3] | mass density, 303.15 K [kg/m3] | mass density, 308.15 K [kg/m3] | mass density, 313.15 K [kg/m3] | mass density, 318.15 K [kg/m3] | speed of sound, 298.15 K [m/s] | speed of sound, 308.15 K [m/s]
x2 = 0 | 925.36 | 920.72 | 916.11 | 911.47 | 906.9 | 1301.4 | 1274.8
x2 = 0.0793 | 936.7 | 931.63 | 926.88 | 922.19 | 917.52 | 1320 | 1291
x2 = 0.1593 | 947.73 | 942.59 | 937.61 | 932.97 | 928.22 | 1339 | 1308
x2 = 0.2401 | 958.4 | 953.27 | 948.33 | 943.6 | 938.75 | 1358 | 1325
x2 = 0.3215 | 968.73 | 963.72 | 958.87 | 954.15 | 949.14 | 1378 | 1342
x2 = 0.4037 | 978.84 | 973.92 | 969.17 | 964.42 | 959.34 | 1399 | 1360
x2 = 0.4866 | 988.63 | 983.76 | 979.06 | 974.35 | 969.28 | 1419 | 1379
x2 = 0.5703 | 998.17 | 993.33 | 988.65 | 984.06 | 979.07 | 1440 | 1398
x2 = 0.6547 | 1007.45 | 1002.6 | 997.97 | 993.39 | 988.67 | 1460 | 1417
x2 = 0.7398 | 1016.35 | 1011.53 | 1006.89 | 1002.53 | 998.04 | 1480 | 1437
x2 = 0.8257 | 1024.9 | 1020.21 | 1015.71 | 1011.52 | 1007.24 | 1499 | 1456
x2 = 0.9125 | 1033.23 | 1028.71 | 1024.47 | 1020.44 | 1016.45 | 1517 | 1476

OCc1ccccc1 [benzenemethanol] + COCCO
Conditions | mass density, 298.15 K [kg/m3] | mass density, 303.15 K [kg/m3] | mass density, 308.15 K [kg/m3] | mass density, 313.15 K [kg/m3] | mass density, 318.15 K [kg/m3] | speed of sound, 298.15 K [m/s] | speed of sound, 308.15 K [m/s]
x1 = 0.0979 | 974.27 | 969.06 | 963.98 | 958.77 | 953.4 | 1359 | 1319
x1 = 0.1928 | 985.51 | 980.26 | 975.04 | 969.7 | 964.14 | 1377 | 1337
x1 = 0.2847 | 995 | 989.74 | 984.55 | 979.32 | 973.82 | 1395 | 1354
x1 = 0.3739 | 1003.23 | 998.13 | 992.96 | 987.81 | 982.44 | 1413 | 1371
x1 = 0.4604 | 1010.46 | 1005.46 | 1000.42 | 995.25 | 990.02 | 1430 | 1388
x1 = 0.5443 | 1016.87 | 1011.91 | 1006.93 | 1001.91 | 996.67 | 1447 | 1405
x1 = 0.6258 | 1022.61 | 1017.7 | 1012.79 | 1007.81 | 1002.65 | 1463 | 1421
x1 = 0.7049 | 1027.69 | 1022.84 | 1018.04 | 1013.09 | 1007.91 | 1478 | 1437
x1 = 0.7818 | 1032.17 | 1027.39 | 1022.66 | 1017.74 | 1012.63 | 1493 | 1452
x1 = 0.8565 | 1035.9 | 1031.28 | 1026.79 | 1022.07 | 1017.05 | 1507 | 1467
x1 = 0.9292 | 1038.94 | 1034.49 | 1030.32 | 1025.92 | 1021.35 | 1521 | 1482
x1 = 1 | 1041.05 | 1037.15 | 1033.32 | 1029.46 | 1025.59 | 1534.5 | 1496
